# Read-outs that look alike come from different tables or passages of the source.
# Tests used:
# IDH1R132C = IDH1R132C (Homo sapiens (Human), UniProt O75874, R132C); assay: Inhibitory activity against IDH1R132C enzyme (NADPH detection, WST-8); assay type: biochemical; settings: 10 nM, residual NADPH detected with WST-8, read-out: Test Example 1 IDH1 R132C IC50
# Experimental: After transformation of Rosetta 2 (DE3) E. coli, the expression of the protein was induced with IPTG.
# While NADPH-derived fluorescence was occasionally monitored, the reaction was terminated by the addition of 5 μL of 0.5 M EDTA before consumption of NADPH. 5 μL of WST-8 reagent (Dojindo Laboratories, #CK04) was further added and mixed therewith. 15 minutes later, the absorbance at 450 nm was measured using a plate reader (PerkinElmer, Inc., EnVision). The observed absorbance value reflects the amount of residual NADPH. From the absorbance data, the enzyme inhibitory activity of each compound at each concentration was calculated and analyzed using medical statistical analysis software GraphPad Prism to calculate an IC50 value.
# [1] = test system: HT-1080 cells expressing IDH1R132C; assay: 2-HG production inhibitory activity using HT1080 cell; assay type: cell-based, human; settings: Homo sapiens
# Experimental: Then, 100 μL of growth medium B was added to each well, further 25 μL of a solution of each compound diluted to a predetermined concentration with growth medium B was added to each well, and the cells were incubated at 37° C. for 2 days under 5% CO2. […] Then, 150 μL of ultrapure water was further added to each well, and the mixture was stirred by pipetting and stored at −20° C.
# The preserved solutions were thawed at room temperature.
# [2] = HT-1080, 2-HG production, HT1080 cells, read-out: Test Example 3 IC50
# IDH1R132C, sequence (O75874 whole entry R132C): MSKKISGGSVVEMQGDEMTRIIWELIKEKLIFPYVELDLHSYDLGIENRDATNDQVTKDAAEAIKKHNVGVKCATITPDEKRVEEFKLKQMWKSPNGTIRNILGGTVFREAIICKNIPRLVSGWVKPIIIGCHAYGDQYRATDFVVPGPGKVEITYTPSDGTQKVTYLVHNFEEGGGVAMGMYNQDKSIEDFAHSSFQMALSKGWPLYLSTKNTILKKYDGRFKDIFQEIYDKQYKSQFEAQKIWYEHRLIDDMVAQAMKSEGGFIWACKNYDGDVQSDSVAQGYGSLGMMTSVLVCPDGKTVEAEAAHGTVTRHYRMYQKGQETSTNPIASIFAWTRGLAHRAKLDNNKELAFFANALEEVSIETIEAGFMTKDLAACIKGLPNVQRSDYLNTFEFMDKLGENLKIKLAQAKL
Compound,IC50 (IDH1R132C) [nM],"IC50 [1, 2] [nM]","IC50 ([1]; HT-1080, read-out: Test Example 3 IC50 (nM)) [nM]"
"Cc1cn(C(=O)c2c(-c3c(Cl)cccc3Cl)noc2C(C)C)c2cccc(/C=C/C(=O)O)c12 [Example 25, (2E)-3-(1-{[3-(2,6-Dichlorophenyl)-5-(propan-2-yl)-1,2-oxazol-4-yl]carbonyl}-3-methyl-1H-indol-4-yl)prop-2-enoic acid]",326,248,–
"CC(C)c1onc(-c2c(Cl)cc(Cl)cc2Cl)c1C(=O)n1ccc2c(/C=C/C(=O)O)cccc21 [Example 26, (2E)-3-(1-{[5-(Propan-2-yl)-3-(2,4,6-Trichlorophenyl)-1,2-oxazol-4-yl]carbonyl}-1H-indol-4-yl)prop-2-enoic acid]",253,248,–
"COC(C)(C)c1onc(-c2c(Cl)cccc2Cl)c1C(=O)n1ccc2c(/C=C/C(=O)O)cccc21 [Example 27, (2E)-3-(1-{[3-(2,6-Dichlorophenyl)-5-(2-methoxypropan-2-yl)-1,2-oxazol-4-yl]carbonyl}-1H-indol-4-yl)prop-2-enoic acid]",160,128,–
"CC(C)c1onc(-c2c(Cl)ccc(F)c2Cl)c1C(=O)n1ccc2c(/C=C/C(=O)O)cccc21 [Example 28, (2E)-3-(1-{[3-(2,6-Dichloro-3-fluorophenyl)-5-(propan-2-yl)-1,2-oxazol-4-yl]carbonyl}-1H-indol-4-yl)prop-2-enoic acid]",90,401,–
"Cc1cn(C(=O)c2c(-c3c(Cl)ccc(F)c3Cl)noc2C(C)C)c2cccc(/C=C/C(=O)O)c12 [Example 30, (2E)-3-(1-{[3-(2,6-Dichloro-3-fluorophenyl)-5-(propan-2-yl)-1,2-oxazol-4-yl]carbonyl}-3-methyl-1H-indol-4-yl)prop-2-enoic acid]",114,350,–
"COC(C)(C)c1onc(-c2c(Cl)cc(Cl)cc2Cl)c1C(=O)n1ccc2c(/C=C/C(=O)O)cccc21 [Example 31, (2E)-3-(1-{[5-(2-Methoxypropan-2-yl)-3-(2,4,6-trichlorophenyl)-1,2-oxazol-4-yl]carbonyl}-1H-indol-4-yl)prop-2-enoic acid]",57,24,–
"CC(C)(C)c1onc(-c2c(Cl)cc(Cl)cc2Cl)c1C(=O)N1CCc2c(/C=C/C(=O)O)cccc21 [Example 32, (2E)-3-(1-{[5-(tert-Butyl)-3-(2,4,6-trichlorophenyl)-1,2-oxazol-4-yl]carbonyl}-2,3-dihydro-1H-indol-4-yl)prop-2-enoic acid]",176,413,–
"CC(C)(C)c1onc(-c2c(Cl)cccc2Br)c1C(=O)n1ccc2c(/C=C/C(=O)O)cccc21 [Example 39, (2E)-3-(1-{[3-(2-Bromo-6-chlorophenyl)-5-(tert-butyl)-1,2-oxazol-4-yl]carbonyl}-1H-indol-4-yl)prop-2-enoic acid]",168,389,–
"Cc1cc(Cl)cc(Cl)c1-c1noc(C(C)(C)C)c1C(=O)n1ccc2c(/C=C/C(=O)O)cccc21 [Example 41, (2E)-3-(1-{[5-(tert-Butyl)-3-(2,4-dichloro-6-methylphenyl)-1,2-oxazol-4-yl]carbonyl}-1H-indol-4-yl)prop-2-enoic acid]",280,254,–
"CC(C)(F)c1onc(-c2c(Cl)cc(Cl)cc2Cl)c1C(=O)n1cc(F)c2c(/C=C/C(=O)O)cccc21 [Example 45, (2E)-3-(3-Fluoro-1-{[5-(2-fluoropropan-2-yl)-3-(2,4,6-trichlorophenyl)-1,2-oxazol-4-yl]carbonyl}-1H-indol-4-yl)prop-2-enoic acid]",114,60,–
"COc1cc(Cl)cc(Cl)c1-c1noc(C(C)(C)F)c1C(=O)n1cc(C)c2c(/C=C/C(=O)O)cccc21 [Example 58, (2E)-3-(1-{[3-(2,4-Dichloro-6-methoxyphenyl)-5-(2-fluoropropan-2-yl)-1,2-oxazol-4-yl]carbonyl}-3-methyl-1H-indol-4-yl)prop-2-enoic acid]",178,295,–
"CC(=O)c1cn(C(=O)c2c(-c3c(Cl)cc(Cl)cc3Cl)noc2C(C)(C)F)c2cccc(/C=C/C(=O)O)c12 [Example 64, (2E)-3-(3-Acetyl-1-{[5-(2-fluoropropan-2-yl)-3-(2,4,6-trichlorophenyl)-1,2-oxazol-4-yl]carbonyl}-1H-indol-4-yl)prop-2-enoic acid]",888,> 2000,–
"C=Cc1ccc(-c2onc(-c3c(Cl)cc(Cl)cc3Cl)c2C(=O)n2ccc3c(/C=C/C(=O)O)cccc32)cn1 [Example 73, (2E)-3-(1-{[5-(6-Ethenylpyridin-3-yl)-3-(2,4,6-trichlorophenyl)-1,2-oxazol-4-yl]carbonyl}-1H-indol-4-yl)prop-2-enoic acid]",208,–,7
"CC1(c2onc(-c3c(Cl)cccc3Cl)c2C(=O)n2ccc3c(/C=C/C(=O)O)cccc32)COC1 [Example 75, (2E)-3-(1-{[3-(2,6-Dichlorophenyl)-5-(3-methyloxetan-3-yl)-1,2-oxazol-4-yl]carbonyl}-1H-indol-4-yl)prop-2-enoic acid]",118,138,–
"COC1(c2onc(-c3c(Cl)cccc3Cl)c2C(=O)n2ccc3c(/C=C/C(=O)O)cccc32)COC1 [Example 76, (2E)-3-(1-{[3-(2,6-Dichlorophenyl)-5-(3-methoxyoxetan-3-yl)-1,2-oxazol-4-yl]carbonyl}-1H-indol-4-yl)prop-2-enoic acid]",94,118,–
"CC1(c2onc(-c3c(Cl)cccc3Cl)c2C(=O)n2ccc3c(/C=C/C(=O)O)cccc32)CCO1 (centres unmarked) [Example 77, (2E)-3-(1-{[3-(2,6-Dichlorophenyl)-5-(2-methyloxetan-2-yl)-1,2-oxazol-4-yl]carbonyl}-1H-indol-4-yl)prop-2-enoic acid]",94,428,–
"COCC1(c2onc(-c3c(Cl)cc(Cl)cc3Cl)c2C(=O)n2cc(C)c3c(/C=C/C(=O)O)cccc32)CCC1 [Example 80, (2E)-3-(1-{[5-[1-(Methoxymethyl)cyclobutyl]-3-(2,4,6-trichlorophenyl)-1,2-oxazol-4-yl]carbonyl}-3-methyl-1H-indol-4-yl)prop-2-enoic acid]",335,99,–
"Cc1cn(C(=O)c2c(-c3c(Cl)cc(Cl)cc3Cl)noc2C2(N(C)C)CC2)c2cccc(/C=C/C(=O)O)c12 [Example 82, (2E)-3-(1-{[5-[1-(Dimethylamino)cyclopropyl]-3-(2,4,6-trichlorophenyl)-1,2-oxazol-4-yl]carbonyl}-3-methyl-1H-indol-4-yl)prop-2-enoic acid]",96,10,–
"CNC(C)(C)c1onc(-c2c(Cl)cc(Cl)cc2Cl)c1C(=O)n1cc(C)c2c(/C=C/C(=O)O)cccc21 [Example 84, (2E)-3-[3-Methyl-1-({5-[2-(methylamino)propan-2-yl]-3-(2,4,6-trichlorophenyl)-1,2-oxazol-4-yl]carbonyl}-1H-indol-4-yl)prop-2-enoic acid]",80,15,–
"CNC(C)(C)c1onc(-c2c(Cl)cc(Cl)cc2Cl)c1C(=O)n1cc2c3c(cccc31)/C(=C/C(=O)O)CC2 [Example 85, (2E)-[1-({5-[2-(Methylamino)propan-2-yl]-3-(2,4,6-trichlorophenyl)-1,2-oxazol-4-yl}carbonyl)-3,4-dihydrobenzo[cd]indol-5(1H)-ylidene]ethanoic acid]",99,9,–
"CNC1(c2onc(-c3c(Cl)cc(Cl)cc3Cl)c2C(=O)n2cc3c4c(cccc42)/C(=C/C(=O)O)CC3)CC1 [Example 86, (2E)-[1-({5-[1-(Methylamino)cyclopropyl]-3-(2,4,6-trichlorophenyl)-1,2-oxazol-4-yl}carbonyl)-3,4-dihydrobenzo[cd]indol-5(1H)-ylidene]ethanoic acid]",79,33,–
"Cc1cn(C(=O)c2c(-c3c(Cl)cc(Cl)cc3Cl)noc2C2(CN(C)C)CCC2)c2cccc(/C=C/C(=O)O)c12 [Example 88, (2E)-3-(1-{[5-{1-[(Dimethylamino)methyl]cyclobutyl}-3-(2,4,6-trichlorophenyl)-1,2-oxazol-4-yl]carbonyl}-3-methyl-1H-indol-4-yl)prop-2-enoic acid]",158,61,–
"Cc1cn(C(=O)c2c(-c3c(Cl)cc(Cl)cc3Cl)noc2C2(C(=O)N(C)C)CCC2)c2cccc(/C=C/C(=O)O)c12 [Example 89, (2E)-3-(1-{[5-[1-(Dimethylcarbamoyl)cyclobutyl]-3-(2,4,6-trichlorophenyl)-1,2-oxazol-4-yl]carbonyl}-3-methyl-1H-indol-4-yl)prop-2-enoic acid]",185,37,–
"Cc1cn(C(=O)c2c(-c3c(Cl)cc(Cl)cc3Cl)noc2C2(N)CCC2)c2cccc(/C=C/C(=O)O)c12 [Example 90, (2E)-3-(1-{[5-(1-Aminocyclobutyl)-3-(2,4,6-trichlorophenyl)-1,2-oxazol-4-yl]carbonyl}-3-methyl-1H-indol-4-yl)prop-2-enoic acid]",59,36,–
"Cc1cn(C(=O)c2c(-c3c(Cl)cc(Cl)cc3Cl)noc2C(C)(C)N(C)C)c2cccc(/C=C/C(=O)O)c12 [Example 91, (2E)-3-[1-({5-[2-(Dimethylamino)propan-2-yl]-3-(2,4,6-trichlorophenyl)-1,2-oxazol-4-yl}carbonyl)-3-methyl-1H-indol-4-yl]prop-2-enoic acid]",120,23,–

# Reference: patent publication US10040791B2, “Isoxazole derivative as mutant isocitrate dehydrogenase 1 inhibitor” (Daiichi Sankyo Company, Limited, priority 2014, dated 2018)
